Patent US5763430A, “Method of treating a viral infection by administering a steroid compound” (priority 1995, dated 1998)
In brackets after ≈: the same amount, converted by molar mass.

Experiments:
[1] = test system: human microvascular cells; test: inhibition of endothelial cell cord formation in vitro; assay type: cell-based; for effect on endothelial cord formation: key: +: Inhibition of angiogenesis; -: No inhibition of angiogenesis; Toxic; *: cell rounding @ 10 µg/ml
Source text: Endothelial cells have the capacity in vitro to form tubular aggregates resembling capillaries in various early stages of formation. This conversion occurs under relatively specific conditions, in which essential growth factors along with an effective substratum are provided. It has been shown that both the interaction of growth factors with the endothelial cell and its attachment to a substratum activate the NHE. The activation of this exchanger is believed to be required for subsequent morphologic transformation of the endothelial cell into a multicellular tubular structure.
To assess the effect of compounds on the cord-like structures formed by human microvascular cells when plated in the presence of VEGF (Vascular Endothelial Growth Factor) and basic fibroblast growth factor on a collagen matrix, a standard cord formation assay was used.

Human melanoma WM 1167 = test: cytotoxic activity against cancer cells; assay type: cell-based
[2] = test system: stage 59-60 Xenopus tadpole; test: Xenopus tadpole assay
Lewis lung carcinoma [3] = test: cytotoxic activity against cancer cells; assay type: cell-based
E. coli = test: antibiotic activity (MIC); assay type: cell-based; conditions: Escherichia coli; E. coli; read-out: MIC
Source text: (§1) Thus, it is possible to achieve an antimicrobial steroid with or without squalamine-like pharmacological activity.

C. albicans = test: antibiotic activity (MIC); assay type: cell-based; conditions: Candida albicans; C. albicans; read-out: MIC
Source text: as §1

S. aureus = test: antibiotic activity (MIC); assay type: cell-based; conditions: Staphylococcus aureus; S. aureus; read-out: MIC
Source text: as §1

P. aerug = test: antibiotic activity (MIC); assay type: cell-based; conditions: P. aerug; read-out: MIC
Source text: as §1

[4] = test system: chick embryo vitelline capillaries; test: chick embryo vitelline capillary regression assay; assay type: in vivo
Experimental: Using the chick embryo vitelline capillaries assay, compounds were tested for their ability to induce capillary regression. Each compound was applied in 0.1 ml of 15% Ficol 400 and PBS onto the embryo, and vascular regression was assessed after 60 minutes.
The 3-day chick embryo consists of an embryonic disc from which numerous vessels emerge and return, forming a "FIG. 8"-shaped structure--the embryo in the center with vascular loops extending outward over both poles. […] Following a lag period of around 15 minutes, the constriction of continuity between capillary and secondary vessels, generally on the "venous" side, was observed. Continued pulsatile blood flow progressed, resulting in a "swelling" of the blind tube, followed by a pinching off of the remaining connection and formation of an enclosed vascular sac resembling a "blood island." This process progressed until only the largest vessels remained intact.

human melanoma = test: effect on growth of human melanoma over time / mode of cell death; assay type: cell-based
[5] = test system: heart of a juvenile Xenopus laevis frog; test: persistence of beating of isolated frog heart; conditions: 10 μg/ml
Experimental: To determine if compound 1436 has such utility, the following experiment was performed. The heart of a juvenile Xenopus laevis frog was dissected from the living animal. The heart was placed into a Petri dish containing Krebs-Ringer buffer with adrenaline 50 μg/ml, and examined with the naked eye. At room temperature, the heart continued beating in a coordinated fashion (atrial beat followed by ventricular beat) for about one hour. In the presence of 10 μg/ml of compound 1436, spontaneous beating persisted up to 24 hours.

rabbit NHE3 = rabbit NHE3 (Oryctolagus cuniculus, UniProt P26432); conditions: 10 μg/ml, acid preloaded 40 mM NH4Cl, FIG. 10
rabbit NHE3, sequence (P26432 30-832): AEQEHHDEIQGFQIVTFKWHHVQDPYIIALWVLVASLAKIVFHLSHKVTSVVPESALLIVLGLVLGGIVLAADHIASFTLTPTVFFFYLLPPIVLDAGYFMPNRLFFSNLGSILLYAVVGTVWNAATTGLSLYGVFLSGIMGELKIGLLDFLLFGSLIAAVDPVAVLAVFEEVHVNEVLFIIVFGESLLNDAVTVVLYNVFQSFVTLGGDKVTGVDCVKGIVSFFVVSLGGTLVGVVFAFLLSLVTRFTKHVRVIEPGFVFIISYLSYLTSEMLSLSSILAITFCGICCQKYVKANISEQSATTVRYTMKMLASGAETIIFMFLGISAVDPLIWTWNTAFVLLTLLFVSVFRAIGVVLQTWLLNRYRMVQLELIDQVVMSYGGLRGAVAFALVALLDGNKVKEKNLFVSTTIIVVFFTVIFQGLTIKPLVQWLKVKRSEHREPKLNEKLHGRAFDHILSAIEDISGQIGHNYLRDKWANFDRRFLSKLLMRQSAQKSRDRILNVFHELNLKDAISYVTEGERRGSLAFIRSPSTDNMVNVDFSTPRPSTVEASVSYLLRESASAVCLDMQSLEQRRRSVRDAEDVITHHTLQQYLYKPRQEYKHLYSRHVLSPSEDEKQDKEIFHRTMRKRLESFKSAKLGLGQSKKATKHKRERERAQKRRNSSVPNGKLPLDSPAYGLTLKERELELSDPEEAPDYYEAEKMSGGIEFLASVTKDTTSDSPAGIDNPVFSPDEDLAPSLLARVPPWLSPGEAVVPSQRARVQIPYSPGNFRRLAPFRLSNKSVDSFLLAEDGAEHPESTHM
Experimental: Internal pH was measured either following acid loading or in the absence of an acid-loading challenge, with the results shown in FIGS. 1A and 1B.
Specifically, PS120 fibroblasts transfected with rabbit NHE3 were grown in supplemented Dulbecco's-modified Eagle's medium as described by Levine et al., J. Biol. Chem. 268, 1993, 25527-25535. […] For cells not acid-preloaded, the actual internal pH value was monitored as a function of time following addition of squalamine, with the results depicted in FIG. 1B.
PS120 fibroblasts transfected with rabbit NHE3 were grown and acid preloaded by exposure to 40 mM NH4 Cl as described above in conjunction with FIGS. 1A and 1B. Internal cellular pH changes expressed as the rate of pH recovery as a function of restored extracellular sodium ion concentration following exposure to 10 μg/ml of the compound were assayed with the fluorescent dye BCECF-AM as described above.

[6] = test system: human coronary artery smooth muscle; test: proliferation of human coronary artery smooth muscle in vitro; assay type: cell-based; conditions: FIG. 15
Source text: Aminosterols of the invention may also have utility in inhibiting the growth factor mediated proliferation of smooth muscle within the artery. Following coronary angioplasty, reocclusion commonly occurs, secondary to reparative proliferation of the vascular smooth muscle within the wall of the surgically manipulated blood vessel. This process generally takes place over the course of 7-10 days. To evaluate whether an agent could prevent the growth factor mediated proliferation of smooth muscle within the artery, compound 1436 was evaluated in vitro for its effect on the proliferation of human coronary artery smooth muscle. Results for compound 1436 are shown in FIG. 13, and those for squalamine are shown in FIG. 14, with FIG. 15 being a composite logarithmic plot.

[7] = effect on fasting blood glucose in mice; assay type: in vivo, mouse (male CD-1); conditions: i.v.
Experimental: To study the effect of steroid administrator or the NHE responsible for secretion of insulin, several of the aminosterols from shark liver were administered to fasting mice. Male CD-1 mice were assigned to one of four treatment groups. Whole blood glucose was tested using glucometer (Lifescan Glucometer II and One Touch test strips). Statistical analysis was via one-way analysis of variance (ANOVA) followed by subsequent Bonferonni's t-test.

[8] = test system: human umbilical venous endothelial cells; test: growth inhibition in vitro; assay type: cell-based; conditions: 10 μg/ml
Source text: (§2) As set forth in Table 7 below, all malignant tumors evaluated in tissue culture, endothelial cells and vascular smooth muscle cells were sensitive to inhibition. Thus, compound 1436 has application in the control of growth factor dependent proliferation of many types of tissue.

[9] = test system: Human microvascular endothelial cells; test: growth inhibition in vitro; assay type: cell-based; conditions: 10 μg/ml
Source text: as §2

Human melanoma WM 1617 = test: growth inhibition in vitro; assay type: cell-based; conditions: WM 1617, 10 μg/ml
Source text: as §2

[10] = test system: Human coronary artery smooth muscle cells; test: growth inhibition in vitro; assay type: cell-based; conditions: 10 μg/ml
Source text: as §2

Murine L1210 leukemia = test: growth inhibition in vitro; assay type: cell-based; conditions: 10 μg/ml
Source text: as §2

Lewis lung carcinoma [11] = test: growth inhibition in vitro; assay type: cell-based; conditions: 10 μg/ml
Source text: as §2

[12] = test system: bovine pulmonary endothelial cells; test: growth inhibition in vitro; assay type: cell-based; conditions: 10 μg/ml
Source text: as §2

Murine B16 melanoma = test: growth inhibition in vitro; assay type: cell-based; conditions: Murine B16 melanoma, 10 μg/ml
Source text: as §2

[13] = test system: Human colon carcinoma HT29; test: growth inhibition in vitro; assay type: cell-based; conditions: HT29, 10 μg/ml
Source text: as §2

[14] = test system: Human colon carcinoma SW948; test: growth inhibition in vitro; assay type: cell-based; conditions: SW948, 10 μg/ml
Source text: as §2

HIV clinical isolate = test: inhibition of HIV replication in PHA-stimulated lymphocytes (HIV P-24 antigen Elisa); assay type: cell-based; conditions: 20 μM
Source text: (§3) Results are tabulated below.

[15] = test system: stage 59-60 Xenopus tadpole; conditions: 10 μg/mL, Table II
[16] = test system: Human ovarian carcinoma SKOV3; test: growth inhibition in vitro; assay type: cell-based; conditions: SKOV3, 10 μg/ml
Experimental: as §2
Using the assay described above, the anticancer effects of compound 1437 against several cancer lines was assessed.

B16 melanoma = test: suppression of growth of B16 melanoma in C57B mice; assay type: in vivo, mouse; conditions: 10 mg/kg every 3 days alone, FIG. 12
Experimental: The growth of B16 melanoma in C57B mice is dependent upon neovascularization.
Using the growth of B16 melanoma cells in C57B mice, a recognized model for the evaluation of inhibitors of angiogenesis on the growth of cancers, the effects of subcutaneous, intraperitoneal and oral administration of squalamine were evaluated.
Based on the idea that tumor growth involves both the clonal expansion of a malignant cell along with the development of a supporting vascular supply, a combination of compound 1436 with squalamine was tested to determine whether it would achieve a synergistic effect on solid tumor growth. This concept was evaluated in the B16 melanoma model.
Animals were implanted with B16 melanoma followed by treatment with compound 1436 or 1256 administered in a combined schedule or separately. […] Thus, a combination of these two compounds achieves a therapeutic benefit in tumors dependent on neovascularization that may prevent metastatic spread.

[17] = viability of lymphocytes in HIV test; assay type: cell-based; conditions: human
Source text: as §3

[18] = test system: L1210 lymphoblastic leukemia cells; test: mouse model of leukemia; assay type: in vivo; conditions: highest dose (10 mg/kg every 3 days ip), FIG. 11
Source text: C57B mice were inoculated with L1210 lymphoblastic leukemia cells at an inoculum that causes leukemia in 100% of animals.

[19] = effect on arterial resistance in the rat; assay type: in vivo; conditions: 5 mg/kg i.v.
Experimental: A 200-g rat was catheterized in the right carotid artery, and the compound was introduced over a ten-second period to a total dosage of 5 mg/kg. Within 30 seconds, the mean arterial pressure had fallen from about 100 mm Hg to about 70 mm Hg, with a marked reduction in pulse pressure from about 40 mm to about 10 mm. […] If cardiac output was basically unaffected, reduction in blood pressure would have resulted principally from a reduction in system resistance.
At that time, 40 μg of noradrenaline was introduced.

human lymphocytes = test: inhibition of mitogen (PHA)-stimulated growth of human T-cells; conditions: Homo sapiens, Lymphocyte, read-out: inhibition of blast transformation
Experimental: Specific assays were used to identify steroids with a particular biological activity, such as an assay for inhibition of mitogen-stimulated growth of human T-cells.
Human heparinized blood, freshly collected, was introduced into tissue culture flasks containing 10 μg/ml phytohaemagglutinin (PHA) in RPMI medium with 10% FCS. Various purified steroids were introduced subsequently at concentrations of 1, 5, and 10 μg/ml. Cultures were incubated for 72 hours, after which time colcemid was added to 1 μg/ml. Cultures were maintained for an additional 2 hours, and cells collected. Miotic figures were estimated using standard cytochemical techniques, following Giemsa staining.

[20] = effect on growth and weight gain of growing mice; assay type: in vivo, mouse (C57B)
Experimental: Animals were dosed QTD (i.p.) starting on Day 1. […] Animals receiving 5 mg/kg QTD experienced about a 50% reduction in growth, compared to untreated controls, while animals receiving 1 mg/kg QTD were affected by about 10%. […] They appeared very much like hypophysectamized animals might appear.

CC(C)CCC[C@@H](C)[C@H]1CC[C@H]2[C@@H]3CC[C@H]4C[C@@H](NCCCNCCCCNCCCN)CC[C@]4(C)[C@H]3CC[C@]12C [Compound 353]
effect on endothelial cord formation ([1]; 0.1 μg/ml): +
effect on endothelial cord formation ([1]; 1.0 μg/ml): +
effect on endothelial cord formation ([1]; 10.0 μg/ml): +
minimal effective concentration ([1]; Homo sapiens, Endothelial cell, Table II, read-out: Minimum Effective Concentration, Cord Formation): 10 µg/mL
IC50 (Human melanoma WM 1167): 3 mg/L (≈ 5.24 µM)
similarity of pharmacologic activity in tadpole assay ([2]; in vivo): effects like those produced by compound 1436
IC50 (Lewis lung carcinoma [3]): 1.9 mg/L (≈ 3.32 µM)
MIC (E. coli): 128 mg/L (≈ 223 µM)
MIC (C. albicans): 32 mg/L (≈ 55.8 µM)
MIC (S. aureus): 16 mg/L (≈ 27.9 µM)
MIC (P. aerug): 64 mg/L (≈ 112 µM)
vitelline capillary regression, potency in words [4]: no effect on the chick embryo capillary bed
mode of cell death (human melanoma): apoptotic cell death has been induced

CC(C)[C@@H](CC[C@@H](C)[C@H]1CC[C@H]2[C@@H]3[C@H](O)C[C@H]4C[C@@H](NCCCNCCCCNCCCN)CC[C@]4(C)[C@H]3CC[C@]12C)OS(=O)(=O)O [Compound 1436]
atrial pacemaker and conduction [5]: remained vigorous
inhibition of rabbit NHE3 (rate of pH recovery) (rabbit NHE3): inhibit rabbit NHE3
growth of human coronary artery smooth muscle [6]: suppress in vitro the growth
hyperglycemia [7]: caused hyperglycemia in mice
non-transformed cells inhibited in vitro [8]: INHIBITED
non-transformed cells inhibited in vitro [9]: INHIBITED
cancer cells inhibited in vitro (Human melanoma WM 1617): INHIBITED
non-transformed cells inhibited in vitro [10]: INHIBITED
cancer cells inhibited in vitro (Murine L1210 leukemia): INHIBITED
cancer cells inhibited in vitro (Lewis lung carcinoma [11]): INHIBITED
non-transformed cells inhibited in vitro [12]: INHIBITED
cancer cells inhibited in vitro (Murine B16 melanoma): INHIBITED
cancer cells inhibited in vitro [13]: INHIBITED
cancer cells inhibited in vitro [14]: INHIBITED
P-24 Elisa (HIV clinical isolate): 9
time to death of tadpole ([2]; 10 μg/ml): about 2 hours
tadpole response ([2]; 10 μg/ml, about 1 hour): Gradual reduction in overall activity. Heart beat remained strong, suggesting nervous system depression. Melanocytes over head and tail began to swell, first exhibiting visibly distinct nuclei, followed by rupture into fragments
Tadpole M (merarocytes) [15]: +
cancer cells inhibited in vitro [16]: INHIBITED
impact on tumor volume (B16 melanoma): no significant impact on tumor volume
viability at 168 h, 0.5 µM ([17]; 0.5 μM): 91%
viability at 168 h, 10 µM ([17]; 10 μM): 95%
viability at 168 h ([17]; 10 μg/ml, read-out: lymphocyte viability): 95%
viability at 168 h, 20 µM ([17]; 20 μM): 90.1%
vitelline capillary regression, potency in words [4]: about the same potency as squalamine
survival of mice bearing L1210 leukemia [18]: significant prolongation of life
duration of effect followed without significant change [19]: 30 min
heart rate [19]: no significant increase in heart rate
inhibition at 10 µg/mL (human lymphocytes): > 75%
mode of cell death (human melanoma): same highly selective mechanism of killing
reduction in growth ([20]; 1 mg/kg QTD i.p.): about 10%
suppression of growth of mice ([20]; 10 mg/kg QTD i.p., after 6 doses, about 1 month): growth was almost completely inhibited
apparent health of treated animals ([20]; mouse, in vivo): all were active, normally proportioned, not-cachectic, and in excellent apparent clinical health
